Test results reported in patent publication US6723753B2, “Substituted n-benzyl-n-phenyl aminoalcohol compounds useful for inhibiting cholesteryl ester transfer protein activity” (Pharmacia Corporation, priority 2002, dated 2004).
pIC50: −log10 of the molar value. Like-named read-outs stand apart in the source and are kept apart here.

Target: T1, CETP (Homo sapiens, UniProt P11597)
T1 sequence (P11597 18-493): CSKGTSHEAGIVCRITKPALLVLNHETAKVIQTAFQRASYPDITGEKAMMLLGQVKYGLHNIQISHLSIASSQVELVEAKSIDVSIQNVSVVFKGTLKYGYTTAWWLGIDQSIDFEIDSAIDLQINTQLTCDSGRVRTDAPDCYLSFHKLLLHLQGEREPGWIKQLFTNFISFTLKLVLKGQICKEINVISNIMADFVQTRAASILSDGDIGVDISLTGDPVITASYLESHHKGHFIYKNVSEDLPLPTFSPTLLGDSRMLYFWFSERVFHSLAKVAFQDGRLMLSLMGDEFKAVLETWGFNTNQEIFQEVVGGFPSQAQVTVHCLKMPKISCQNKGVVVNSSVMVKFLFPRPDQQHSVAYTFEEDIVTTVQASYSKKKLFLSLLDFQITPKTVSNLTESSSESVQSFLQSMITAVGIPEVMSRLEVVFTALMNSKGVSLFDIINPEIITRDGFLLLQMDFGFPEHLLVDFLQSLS
Test: Assay of CETP Inhibition using Purified Components (Reconstituted Buffer Assay)
Format: biochemical
Design: made in house; host or cells: CHO cells (serum-free conditioned medium)
Conditions: transfer of [3H]CE from HDL to LDL
In short: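 Purified human recombinant CETP from transfected CHO cells was incubated with [^3H]CE-labeled HDL donor and LDL acceptor in Tris pH 7.4/NaCl/EDTA/1% BSA buffer for 2 h at 37 °C. LDL was then precipitated with dextran sulfate/MgCl2, filtered, and counted by liquid scintillation to give IC50 for CE transfer.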

[1] = Inhibition of CETP activity in reconstituted buffer assay, read-out: IC50

pIC50 [1]	SMILES	pIC50 (IC50, Inhibition of CETP activity in reconstituted buffer assay)
5.51	Cc1ccc(Oc2cccc(N(Cc3cccc(OC(F)(F)F)c3)CC(O)C(F)(F)F)c2)cn1 (stereo not shown) [Example 633, 3-[[3-(2-methyl-5-pyridyloxy)phenyl][[3-(trifluoromethoxy)phenyl]methyl]-amino]-1,1,1-trifluoro-2-propanol]	–
4.10	OC(CN(Cc1cccc(OC(F)(F)F)c1)c1cccc(Cc2cccc(N(Cc3cccc(OC(F)(F)F)c3)CC(O)C(F)(F)F)c2)c1)C(F)(F)F (stereo not shown) [Example 665, 1,1′-[methylenebis[3,1-phenylene[[[3-(trifluoromethoxy)phenyl]methyl]imino]]]bis[3,3,3-trifluoro-2-propanol]]	–
< 4.00	COc1ccccc1N(Cc1ccc(C)cc1)CC(O)C(F)(F)F (stereo not shown) [Example 667]	–
< 4.00	COc1ccccc1N(Cc1cccc(C)c1)CC(O)C(F)(F)F (stereo not shown) [Example 668]	–
< 4.00	COc1ccccc1N(Cc1cccc(C(F)(F)F)c1)CC(O)C(F)(F)F (stereo not shown) [Example 669]	–
< 4.00	Cc1ccc(CN(CC(O)C(F)(F)F)c2ccccc2C(F)(F)F)cc1 (stereo not shown) [Example 673]	–
< 4.00	COc1ccc(Oc2cccc(CN(CC(O)C(F)(F)F)c3cccc(F)c3)c2)cc1 (stereo not shown) [Example 675]	–
< 4.00	OC(CN(Cc1cccc(Oc2ccc(Cl)cc2)c1)c1cccc(F)c1)C(F)(F)F (stereo not shown) [Example 676]	–
< 4.00	OC(CN(Cc1cc(C(F)(F)F)cc(C(F)(F)F)c1)c1cccc(F)c1)C(F)(F)F (stereo not shown) [Example 677]	–
< 4.00	Cc1cccc(CN(CC(O)C(F)(F)F)c2cccc(F)c2F)c1 (stereo not shown) [Example 678]	–
< 4.00	Cc1ccc(CN(CC(O)C(F)(F)F)c2cccc(C(F)(F)F)c2F)cc1 (stereo not shown) [Example 679]	–
< 4.00	Cc1cccc(CN(CC(O)C(F)(F)F)c2cccc(C(F)(F)F)c2F)c1 (stereo not shown) [Example 680]	–
< 4.00	Cc1ccc(CN(CC(O)C(F)(F)F)c2cccc(F)c2F)cc1 (stereo not shown) [Example 681]	–
< 4.00	COc1ccccc1N(Cc1ccc(C(F)(F)F)cc1)CC(O)C(F)(F)F (stereo not shown) [Example 682]	–
4.70	OC(CN(Cc1ccc(OCc2ccccc2)cc1)c1cccc(OC(F)(F)F)c1)C(F)(F)F (stereo not shown) [Example 683]	–
< 4.00	O=[N+]([O-])c1cc(Cl)ccc1CN(CC(O)C(F)(F)F)c1cccc(Oc2ccccc2)c1 (stereo not shown) [Example 684]	–
4.22	OC(CN(Cc1ccc(Oc2ccc(Cl)c(Cl)c2)cc1)c1cccc(Oc2ccccc2)c1)C(F)(F)F (stereo not shown) [Example 685]	–
–	OC(CN(Cc1ccc2c(c1)OC(F)(F)C(F)(F)O2)c1cccc(Oc2ccccc2)c1)C(F)(F)F (stereo not shown) [Example 687]	4.92
5.30	OC(CN(Cc1cccc(C(F)(F)F)c1)c1ccc(-c2ccccc2)cc1)C(F)(F)F (stereo not shown) [Example 689]	–
4.80	Oc1cccc(N(Cc2cccc(OC(F)(F)F)c2)CC(O)C(F)(F)F)c1 (stereo not shown) [Example 692]	–
5.92	CCC(=O)c1ccc(Oc2cccc(N(Cc3cccc(OC(F)(F)C(F)F)c3)CC(O)C(F)(F)F)c2)cc1 (stereo not shown) [Example 693]	–
4.77	FC(CN(Cc1cccc(OC(F)(F)C(F)F)c1)c1cccc(Oc2ccccc2)c1)C(F)(F)F (stereo not shown) [Example 1669, N-(3-phenoxyphenyl)-N-(3,3,3,2-tetrafluoropropyl)-3-(1,1,2,2-tetrafluoroethoxy)benzenemethanamine]	–
5.74	CCc1cc(Oc2cccc(N(Cc3cccc(OC(F)(F)C(F)F)c3)C(CO)C(F)(F)F)c2)ccc1Cl (stereo not shown) [Example 1670]	–
4.96	FC(F)(F)CCCN(Cc1cccc(OC(F)(F)F)c1)c1cccc(Oc2ccccc2)c1 [Example 1671, N-(3-phenoxyphenyl)-N-(4,4,4-trifluorobutyl)-3-(trifluoromethoxy) benzenemethanamine]	–
< 4.00	OC(CN(Cc1ccc(C(F)(F)F)cc1)Cc1cccc(F)c1)C(F)(F)F (stereo not shown) [compound 169]	–
< 4.00	OC(CN(Cc1ccc(F)cc1)Cc1ccc(C(F)(F)F)cc1)C(F)(F)F (stereo not shown) [compound 170]	–
< 4.00	OC(CN(Cc1ccc(C(F)(F)F)cc1)Cc1ccccc1F)C(F)(F)F (stereo not shown) [compound 171]	–
5.15	OC(CN(Cc1ccc(C(F)(F)F)cc1)Cc1cccc(Cl)c1)C(F)(F)F (stereo not shown) [compound 172]	–
